Test results reported in patent US11168073B2, “3,3-difluoroallylamines or salts thereof and pharmaceutical compositions comprising the same” (YUHAN CORPORATION, priority 2018, dated 2021).
Structures can show the parent of a compound that is named as a salt.

Key:
Type in all cases: biochemical
[1] = target: T1, recombinant human DAO (diamine oxidase) (Homo sapiens, UniProt P19801); experiment: Activity evaluation on recombinant human DAO (Amplex Red/HRP-coupled assay, 1 mM putrescine substrate); conditions: 1 mM putrescine, read-out: Inhibitory Activity (IC50, nM) DAO
T1 construct: purchased R&D systems
T1 sequence (P19801 20-751): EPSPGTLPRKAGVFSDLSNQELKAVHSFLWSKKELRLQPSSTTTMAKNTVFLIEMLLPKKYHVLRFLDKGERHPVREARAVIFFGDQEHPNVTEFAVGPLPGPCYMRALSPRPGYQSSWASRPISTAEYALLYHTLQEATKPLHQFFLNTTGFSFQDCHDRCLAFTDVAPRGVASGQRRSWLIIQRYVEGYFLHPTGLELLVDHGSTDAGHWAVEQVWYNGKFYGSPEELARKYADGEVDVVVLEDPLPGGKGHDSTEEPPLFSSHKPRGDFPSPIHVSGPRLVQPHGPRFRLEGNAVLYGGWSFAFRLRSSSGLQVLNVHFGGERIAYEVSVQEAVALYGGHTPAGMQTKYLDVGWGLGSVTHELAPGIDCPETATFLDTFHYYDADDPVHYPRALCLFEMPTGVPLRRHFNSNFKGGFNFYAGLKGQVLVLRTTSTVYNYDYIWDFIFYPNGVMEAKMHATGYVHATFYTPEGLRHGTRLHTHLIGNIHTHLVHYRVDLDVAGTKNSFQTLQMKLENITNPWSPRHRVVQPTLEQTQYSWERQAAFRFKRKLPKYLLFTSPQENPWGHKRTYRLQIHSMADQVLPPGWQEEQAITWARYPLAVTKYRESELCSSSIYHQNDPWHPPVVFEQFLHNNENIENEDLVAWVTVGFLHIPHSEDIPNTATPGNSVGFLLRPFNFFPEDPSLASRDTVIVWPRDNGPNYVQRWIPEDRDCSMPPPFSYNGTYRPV
Outline: (§1)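 Enzyme activity was measured as fluorescence rate (ex 544, em 590 nm) from resorufin formed by HRP-coupled H2O2 oxidation of 200 uM Amplex Red. Compounds were first incubated 30 min at 37 °C with enzyme at pH 7.4; substrates were 0.5 mM tyramine (MAO-A), 1 mM benzylamine (MAO-B) and 1 mM putrescine (DAO).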

[2] = target: T2, recombinant human MAO-A (monoamine oxidase-A) (Homo sapiens, UniProt P21397); experiment: Activity evaluation on recombinant human MAO-A (Amplex Red/HRP-coupled assay, 0.5 mM tyramine substrate); conditions: 0.5 mM tyramine, read-out: Inhibitory Activity (IC50, nM) MAO-A
T2 construct: purchased Sigma-Aldrich
T2 sequence (P21397 1-527): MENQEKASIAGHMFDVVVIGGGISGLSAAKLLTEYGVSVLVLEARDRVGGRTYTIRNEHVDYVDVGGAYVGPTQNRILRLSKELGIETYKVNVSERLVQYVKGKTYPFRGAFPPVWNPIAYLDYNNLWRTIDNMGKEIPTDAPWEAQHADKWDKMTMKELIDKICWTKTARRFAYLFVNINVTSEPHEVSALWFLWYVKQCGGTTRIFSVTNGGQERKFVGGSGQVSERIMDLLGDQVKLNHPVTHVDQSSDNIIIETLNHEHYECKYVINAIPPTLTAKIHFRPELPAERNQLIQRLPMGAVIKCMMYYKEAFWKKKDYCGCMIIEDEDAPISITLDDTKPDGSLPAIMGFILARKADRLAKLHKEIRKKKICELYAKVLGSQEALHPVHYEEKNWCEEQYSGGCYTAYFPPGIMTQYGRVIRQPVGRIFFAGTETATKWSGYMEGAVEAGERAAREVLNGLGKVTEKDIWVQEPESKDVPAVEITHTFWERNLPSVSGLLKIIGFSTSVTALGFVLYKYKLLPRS
Outline: as §1

[3] = target: T3, recombinant human MAO-B (monoamine oxidase-B) (Homo sapiens, UniProt P27338); experiment: Activity evaluation on recombinant human MAO-B (Amplex Red/HRP-coupled assay, 1 mM benzylamine substrate); conditions: 1 mM benzylamine, read-out: Inhibitory Activity (IC50, nM) MAO-B
T3 construct: purchased Sigma-Aldrich
T3 sequence (P27338 1-520): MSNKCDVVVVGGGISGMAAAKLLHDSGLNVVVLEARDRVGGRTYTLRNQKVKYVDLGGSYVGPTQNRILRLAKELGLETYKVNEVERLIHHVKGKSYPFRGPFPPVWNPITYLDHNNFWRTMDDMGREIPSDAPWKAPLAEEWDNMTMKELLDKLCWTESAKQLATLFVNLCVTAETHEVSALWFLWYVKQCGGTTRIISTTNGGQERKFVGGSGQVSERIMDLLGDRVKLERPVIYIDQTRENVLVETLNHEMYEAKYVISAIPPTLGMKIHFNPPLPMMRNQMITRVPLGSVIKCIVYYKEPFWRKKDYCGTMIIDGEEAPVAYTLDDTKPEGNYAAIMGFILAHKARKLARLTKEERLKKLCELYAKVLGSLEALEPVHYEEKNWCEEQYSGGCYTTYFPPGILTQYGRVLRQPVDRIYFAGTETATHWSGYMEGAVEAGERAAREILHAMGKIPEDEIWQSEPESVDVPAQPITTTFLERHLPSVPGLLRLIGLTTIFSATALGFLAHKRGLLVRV
Outline: as §1

[4] = target: T4, recombinant human VAP-1 (Homo sapiens, UniProt Q16853); experiment: Activity evaluation on recombinant human VAP-1 (Amplex Red/HRP-coupled hydrogen peroxide assay, benzylamine substrate); conditions: recombinant human VAP-1; 30 min preincubation at 37° C.; 1 mM benzylamine; read-out: Inhibitory Activity (IC50, nM) human VAP-1
T4 construct: purchased R&D systems
T4 sequence (Q16853 1-763): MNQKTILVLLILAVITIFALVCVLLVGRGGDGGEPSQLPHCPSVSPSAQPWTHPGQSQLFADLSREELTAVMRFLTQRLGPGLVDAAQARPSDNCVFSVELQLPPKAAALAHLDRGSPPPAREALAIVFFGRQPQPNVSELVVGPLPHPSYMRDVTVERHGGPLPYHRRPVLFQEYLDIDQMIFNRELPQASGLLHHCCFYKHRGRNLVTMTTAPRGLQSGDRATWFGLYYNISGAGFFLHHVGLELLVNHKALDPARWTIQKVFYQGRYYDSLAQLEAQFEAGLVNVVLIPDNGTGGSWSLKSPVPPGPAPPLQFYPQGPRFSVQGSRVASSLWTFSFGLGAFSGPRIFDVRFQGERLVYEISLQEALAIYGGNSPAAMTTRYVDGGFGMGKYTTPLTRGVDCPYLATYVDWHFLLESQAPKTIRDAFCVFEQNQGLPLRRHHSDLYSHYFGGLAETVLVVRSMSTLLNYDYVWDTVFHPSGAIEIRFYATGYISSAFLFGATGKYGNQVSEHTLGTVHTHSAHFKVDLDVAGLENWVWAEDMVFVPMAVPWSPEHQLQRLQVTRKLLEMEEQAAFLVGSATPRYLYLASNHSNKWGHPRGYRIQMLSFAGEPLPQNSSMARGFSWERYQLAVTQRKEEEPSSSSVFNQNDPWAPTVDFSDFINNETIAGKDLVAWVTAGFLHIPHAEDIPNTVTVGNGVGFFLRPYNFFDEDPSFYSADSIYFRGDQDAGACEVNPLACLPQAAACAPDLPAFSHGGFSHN
Outline: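 Recombinant human VAP-1 in 50 mM sodium phosphate pH 7.4 preincubated 30 min at 37 °C with compound (8-point 1:3 series, <1% DMSO), then 1 mM benzylamine, 200 uM Amplex Red, 1 U/mL HRP added. H2O2-derived resorufin fluorescence (ex 544/em 590) followed 1–2 h; IC50 from four-parameter fit of rate inhibition.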

SMILES	IC50 [1] [nM]	IC50 [2] [nM]	IC50 [3] [nM]	IC50 [4] [nM]
CS(=O)(=O)c1cccc(-c2ccc(Cn3cnn(CC(CN)=C(F)F)c3=O)s2)c1 [Example 102, 2-[2-(aminomethyl)-3,3-difluoro-allyl]-4-[[5-(3-methylsulfonylphenyl)-2-thienyl]methyl]-1,2,4-triazol-3-one Trifluoroacetate]	> 10000	> 100000	5400	0.4
CN(C)S(=O)(=O)c1cccc(-c2ccc(Cn3cnn(CC(CN)=C(F)F)c3=O)s2)c1 [Example 103, 3-[5-[[1-[2-(aminomethyl)-3,3-difluoro-allyl]-5-oxo-1,2,4-triazol-4-yl]methyl]-2-thienyl]-N,N-dimethyl-benzenesulfonamide trifluoroacetate]	22000	> 100000	4200	0.9
CNC(=O)c1ccc(-c2ccc(Cn3cnn(CC(CN)=C(F)F)c3=O)s2)cc1 [Example 104, 4-[5-[[1-[2-(aminomethyl)-3,3-difluoro-allyl]-5-oxo-1,2,4-triazol-4-yl]methyl]-2-thienyl]-N-methyl-benzamide trifluoroacetate]	31000	> 100000	> 10000	0.5
COc1cc(-c2ccc(Cn3cnn(CC(CN)=C(F)F)c3=O)s2)cc(OC)c1OC [Example 105, 2-[2-(aminomethyl)-3,3-difluoro-allyl]-4-[[5-(3,4,5-trimethoxyphenyl)-2-thienyl]methyl]-1,2,4-triazol-3-one Trifluoroacetate]	> 10000	> 100000	6500	1.5
NCC(Cn1ncn(Cc2ccc(-c3ccc(N4CCNCC4)cc3)s2)c1=O)=C(F)F [Example 106, 2-[2-(aminomethyl)-3,3-difluoro-allyl]-4-[[5-(4-piperazin-1-ylphenyl)-2-thienyl]methyl]-1,2,4-triazol-3-one Ditrifluoroacetate]	860	> 100000	> 100000	4.7
NCC(Cn1ncn(Cc2ccc(-c3cccc(N4CCNCC4)c3)s2)c1=O)=C(F)F [Example 107, 2-[2-(aminomethyl)-3,3-difluoro-allyl]-4-[[5-(3-piperazin-1-ylphenyl)-2-thienyl]methyl]-1,2,4-triazol-3-one Ditrifluoroacetate]	12000	> 100000	46000	3.5

Now from value to compound:

IC50 [1] [nM]	IC50 [2] [nM]	IC50 [3] [nM]	IC50 [4] [nM]	SMILES
42000	> 10000	> 10000	2	CC(=O)N1CCN(c2ccc(-c3ccc(Cn4cnn(CC(CN)=C(F)F)c4=O)s3)cc2)CC1 [Example 108, 4-[[5-[4-(4-acetylpiperazin-1-yl)phenyl]-2-thienyl]methyl]-2-[2-(aminomethyl)-3,3-difluoro-allyl]-1,2,4-triazol-3-one Trifluoroacetate]
84000	> 100000	> 100000	1.4	NCC(Cn1ncn(Cc2ccc(-c3ccc(C(=O)N4CCOCC4)cc3)s2)c1=O)=C(F)F [Example 109, 2-[2-(aminomethyl)-3,3-difluoro-allyl]-4-[[5-(4-morpholine-4-carbonyl)phenyl]-2-thienyl]methyl]-1,2,4-triazol-3-one trifluoroacetate]
> 100000	> 10000	8700	1.3	NCC(Cn1ncn(Cc2ccc(-c3cccc(-c4cc[nH]n4)c3)s2)c1=O)=C(F)F [Example 110, 2-[2-(aminomethyl)-3,3-difluoro-allyl]-4-[[5-[3-(1H-pyrazol-3-yl)phenyl]-2-thienyl]methyl]-1,2,4-triazol-3-one Trifluoroacetate]
7200	> 100000	9400	0.4	NCC(Cn1ncn(Cc2ccc(-c3ccc(C(F)(F)F)nc3)s2)c1=O)=C(F)F [Example 111, 2-[2-(aminomethyl)-3,3-difluoro-allyl]-4-[[5-[6-(trifluoromethyl)-3-pyridyl]-2-thienyl]methyl]-1,2,4-triazol-3-one Trifluoroacetate]
> 100000	> 100000	26000	0.2	CN(C)c1ccc(-c2ccc(Cn3cnn(CC(CN)=C(F)F)c3=O)s2)cn1 [Example 112, 2-[2-(aminomethyl)-3,3-difluoro-allyl]-4-[[5-[6-(dimethylamino)-3-pyridyl]-2-thienyl]methyl]-1,2,4-triazol-3-one Trifluoroacetate]
19000	> 100000	2700	0.6	COc1ccc(-c2ccc(Cn3cnn(CC(CN)=C(F)F)c3=O)s2)cn1 [Example 113, 2-[2-(aminomethyl)-3,3-difluoro-allyl]-4-[[5-(6-methoxy-3-pyridyl)-2-thienyl]methyl]-1,2,4-triazol-3-one Trifluoroacetate]
970	> 100000	> 100000	4.9	NCC(Cn1ncn(Cc2ccc(-c3ccc(N4CCNCC4)nc3)s2)c1=O)=C(F)F [Example 114, 2-[2-(aminomethyl)-3,3-difluoro-allyl]-4-[[5-(6-piperazin-1-yl-3-pyridyl)-2-thienyl]methyl]-1,2,4-triazol-3-one Ditrifluoroacetate]
